Where two headings read alike, the source gives them in different places.
Legend:
V1bR (hV1BR) = tested on: V1bR (hV1BR); design: method as in PMID 30199637; conditions: cited from earlier work
[1] = stability in human hepatocytes; type: in vitro ADME
Method: Stability of LIT-001 was determined in human hepatocytes. Cells were unfrozen and their viability measured (Tryptan blue). Cells are suspended (2 × 10^6 cells/ml) and dispensed in 96 well microtiterplates (50 μl/well). LIT-001 (50 μl of a 2 μM in the incubation media) was added. The final concentration of the compound was 1 μM in 1 × 10^6 cells/ml. The incubation volume was 100 μl/well. Incubations were stopped after 0, 4, 20, 40, 80 and 120 min in mixing the well content with 100 μl acetonitrile at 0 °C. A positive control (testosterone) was prepared in same conditions. All samples were analyzed by LC-MS/MS (UHPLC coupled to a triple quadripole Shimadzu LC-MS 8030). Each measurement was performed in triplicate.

mOTR = tested on: mOTR; design: method as in PMID 30199637; conditions: mouse receptor, cited from earlier work
[2] = distribution and clearance after i.p. injection, LC-MS/MS; type: in vivo; conditions: ip, rat, 10 mg/kg i.p.
Method: Brains from rat injected with 10 mg/kg (18.8 µmol/kg) i.p. of LIT-001 were homogenized with an Ultra Turrax instrument (Ika, Staufen, Germany) in 2 ml of H2O (Figs. 4, S4). The homogenates were then sonicated (3 times 10 s, 100 W) with a Vibra Cell apparatus (Sonics, Newtown, U.S.A.). Protein concentrations were determined using the Bradford method (Protein Assay, Bio-Rad, Marne-la-Coquette, France). 400 µl was mixed with 4 ml of ice cold acetonitrile (ACN) and let 30 min on ice. Samples were then centrifuged (20,000 × g, 30 min) at 4 °C. Supernatants were dried under vacuum and resuspended in 400 µl ACN 10%/H2O 89.9%/formic acid 0.1% (v/v/v) and a volume of 5 µl was injected on the LC-MS/MS. For CSF, plasma and urine, 200 µl of fluids were mixed with 1 ml of ice cold acetonitrile (ACN) and let 30 min on ice. Samples were then centrifuged (20,000 × g, 30 min) at 4 °C. Supernatants were dried under vacuum and suspended in 200 µl ACN 10%/H2O 89.9%/formic acid 0.1% (v/v/v) and a volume of 5 µl was injected on the LC-MS/MS.
Analyses were performed on a Dionex Ultimate 3000 HPLC system (Thermo Scientific, San Jose, USA) coupled with a triple quadrupole Endura mass spectrometer (Thermo Scientific). The system was controlled by Xcalibur v.2.0 software (Thermo Electron). Samples were loaded onto an Accucore C18 RP-MS column (ref 17126–151030; 150 × 1 mm 2.6 μm, Thermo Scientific) heated at 40 °C. The presence of LIT-001 was studied using the multiple reaction monitoring mode (MRM). Elution was performed at a flow rate of 150 µl/min by applying a linear gradient of mobile phases A/B. Mobile phase A corresponded to ACN 1%/H2O 98.9%/formic acid 0.1% (v/v/v), whereas mobile phase B was ACN 99.9%/formic acid 0.1% (v/v). The gradient used is detailed in Fig. S4. […] Desolvation (nitrogen) sheath gas was set to 27 Arb and Aux gas was set to 9 Arb. The ion transfer tube was heated at 312 °C. Q1 and Q2 resolutions were set at 0.7 FWHM, whereas collision gas (CID, argon) was set to 2 mTorr. Identification of the compounds was based on precursor ion, selective fragment ions and retention times obtained for LIT-001. Selection of the monitored transitions and optimization of collision energy and RF Lens parameters were manually determined (see Fig. S4 for details). Qualification and quantification were performed in MRM mode. Quantification was obtained using Quan Browser software (Thermo Scientific). For tissues and fluids, LIT-001 was quantified using calibration curves of external standards of LIT-001 (125 fmol to 100 pmol/injection; Fig. S4) added to urine, plasma or brain extracts of naive rat and submitted to the same procedure described for respective fluids and tissue recovery. The amounts of LIT-001 measured in samples fit within the standard curve limits, with typical analytical ranges (the range of amounts that can be accurately quantified) from […].

[3] = tested on: CFA-induced mechanical hyperalgesia; test: mechanical sensitivity, calibrated forceps, CFA model; type: in vivo; conditions: rat
Method: LIT-001 was prepared as described in Frantz et al.[20]. […] LIT-001 or vehicle were injected intraperitoneally (i.p.), in a volume of 10 ml/kg[20], 24 h after the induction of the CFA-induced painful inflammatory sensitization. To confirm the implication of the OTR we injected (i.p.) also L-368,899 (Sigma, St. Louis, MO) (1 mg/kg), an OTR antagonist, in combination with LIT-001 in another group of rats[11].
Male Wistar rats (300 g; JANVIER LABS, Le Genest St. Isle, France) were used for this study. They were housed by groups of 3 or 4 under standard conditions (room temperature, 22 °C; 12/12 h light/dark cycle) with ad libitum access to food and water and behavioral enrichment. All animals were manipulated and habituated to the tests and to the room for at least 2 weeks. All behavioral tests were done during the light period (i.e., between 7:00 and 19:00). All the procedures were performed in accordance with European committee council Direction, authorization from French Department of Agriculture and from the regional ethic committee.
In all experimentations, to test the animal mechanical sensitivity, we used a calibrated forceps (Bioseb, Chaville, France) previously developed in our laboratory (Figs. 2, 3 and S2, S3)[32]. Briefly, the habituated rat is loosely restrained with a towel masking the eyes in order to limit stress by environmental stimulations. The tips of the forceps are placed at each side of the paw and a graduate force is applied. The pressure producing a withdrawal of the paw, or in some rare cases a vocalization of the animal, corresponded to the nociceptive threshold value. This manipulation was performed three times for each hindpaw and the values were […].
In order to induce a peripheral inflammation, 100 μl of complete Freund adjuvant (CFA; Sigma, St. Louis, MO), was injected in the right hindpaw of the rat. All CFA injections were performed under light isoflurane anesthesia (3%).

[4] = CSF, read-out: concentration in CSF
[5] = brain, read-out: concentration in brain
[6] = plasma, read-out: concentration in plasma
[7] = urine, read-out: concentration in urine
[8] = i.p., D1 after CFA, measured 1 hour after injection

Cc1cc(C(=O)N2Cc3cnn(C)c3Nc3ccccc32)ccc1CNC(=O)N1CCC[C@H]1C(=S)N(C)C [LIT-001]
EC50 (hV1BR) (V1bR (hV1BR); agonist mode): non significant | agonist or antagonist effect on V1bR (V1bR (hV1BR)): devoid of agonist or antagonist effect | degradation on human hepatocytes ([1]; 1 μM, 37 °C, after 2 hours): no degradation was observed | half-life at 1 μM ([1]; human, human hepatocytes (cryopreserved, suspension), from in vitro stability results): > 2 h | EC50 (mOTR; agonist): 18 nM | Emax (mOTR) (mOTR; efficacy): 95% | concentration at 60 min [2, 4]: 7.4 ± 4.4 nM | concentration at 300 min [2, 4]: 1.5 ± 1.1 nM | concentration at 60 min [2, 5]: 1.6 ± 0.8 nM | concentration at 300 min [2, 5]: 0.6 ± 0.4 nM | concentration at 30 min ([2]; plasma, 30 min (highest)): 650 ± 200 nM | concentration at 60 min [2, 6]: 626 ± 112 nM | concentration at 300 min [2, 6]: 95.2 ± 36.5 nM | concentration at 60 min [2, 7]: 52500 ± 14200 nM | concentration at 300 min [2, 7]: 189000 ± 8480 nM | mechanical threshold, NaCl-injected hindpaw (control animals) ([3]; 10 mg/kg i.p.): 526 ± 20 g | mechanical threshold, hindpaw contralateral to CFA (cCFA) ([3]; 10 mg/kg i.p.): 531 ± 25 g | antinociceptive action on contralateral hindpaw ([3]; 0.1-15 mg/kg i.p., mechanical and thermal heat, 1 hour after injection): none of the doses tested seem to exert an antinociceptive action | relative-to-baseline AUC, mechanical threshold, CFA-injected hindpaw ([3]; i.p. LIT-001 10 mg/kg at D1 after CFA): 152 ± 11% | mechanical threshold, CFA-injected hindpaw ([3]; i.p. LIT-001 10 mg/kg at D1 after CFA, 3 h post i.p.): 246 ± 22 g | dose at which analgesic effect reaches a plateau, mechanical hypersensitivity [3, 8]: 10 mg/kg | dose of first analgesic action, mechanical hypersensitivity [3, 8]: 5 mg/kg

From article PMC7033278, “A Nonpeptide Oxytocin Receptor Agonist for a Durable Relief of Inflammatory Pain” (Scientific Reports, 2020)
